Experimental data as given in ChEMBL document CHEMBL1156995, “Identification of potent, highly constrained CGRP receptor antagonists” (Bioorg Med Chem Lett, 2010).
Calls of active or inactive are those of the source. The rule behind the calls is not given here.

Legend:
[1] = molecular target: T1, Calcitonin gene-related peptide type 1 receptor (Homo sapiens, UniProt O60894+Q16602); experiment: Displacement of […] expressed in HEK293 cells coexpressing human RAMP1; format: cell-based
[2] = molecular target: T1, Calcitonin gene-related peptide type 1 receptor; experiment: Antagonist activity at human CLR expressed in human HEK293 cells coexpressing human RAMP1 assessed as Inhibition of CGRP-induced cAMP production; format: functional, cell-based
[3] = molecular target: T1, Calcitonin gene-related peptide type 1 receptor; experiment: Antagonist activity at human CLR expressed in human HEK293 cells coexpressing human RAMP1 assessed as Inhibition of CGRP-induced cAMP production in the presence of 50% human serum; format: functional, cell-based
[4] = Oral bioavailability in rat at 10 mg/kg in presence of lmwitor:tween; format: ADME, organism-based; conditions: in vivo
[5] = Half life in rat at 2 mg/kg, iv; format: ADME, organism-based; set-up: dose 2 mg/kg, route intravenous; conditions: in vivo
[6] = Clearance in rat at 10 mg/kg, po or 2 mg/kg, iv; format: ADME, organism-based; conditions: in vivo
[7] = Oral bioavailability in rat at 10 mg/kg in presence of methylcellulose; format: ADME, organism-based; conditions: in vivo
[8] = Oral bioavailability in rat at 5 mg/kg in presence of PEG400:water; format: ADME, organism-based; conditions: in vivo
[9] = Half life in rat at 1 mg/kg, iv; format: ADME, organism-based; set-up: dose 1 mg/kg, route intravenous; conditions: in vivo
[10] = Clearance in rat at 5 mg/kg, po or 1 mg/kg, iv; format: ADME, organism-based; conditions: in vivo
[11] = Clearance in rhesus monkey at 2 mg/kg, po and 0.5 mg/kg, iv; format: ADME, organism-based, Macaca mulatta; conditions: in vivo
[12] = Oral bioavailability in dog at 1 mg/kg in presence of methylcellulose; format: ADME, organism-based, Canis lupus familiaris; conditions: in vivo
[13] = Oral bioavailability in rhesus monkey at 2 mg/kg in presence of methylcellulose; format: ADME, organism-based, Macaca mulatta; conditions: in vivo
[14] = Half life in rat at 2mg/kg, iv; format: ADME, organism-based; conditions: in vivo
[15] = Half life in dog at 0.5 mg/kg, iv; format: ADME, organism-based, Canis lupus familiaris; set-up: dose 0.5 mg/kg, route intravenous; conditions: in vivo
[16] = Half life in rhesus monkey at 0.5 mg/kg, iv; format: ADME, organism-based, Macaca mulatta; set-up: dose 0.5 mg/kg, route intravenous; conditions: in vivo
[17] = Clearance in rat at 10 mg/kg, po and 2 mg/kg, iv; format: ADME, organism-based; conditions: in vivo
[18] = Clearance in dog at 1 mg/kg, po and 0.5 mg/kg, iv; format: ADME, organism-based, Canis lupus familiaris; conditions: in vivo
Rhesus monkey [19] = experiment: Inhibition of capsaicin-induced vasodilation in orally dosed rhesus monkey at 5.5 uM plasma level; format: functional, organism-based; conditions: Macaca mulatta
Rhesus monkey [20] = experiment: Inhibition of capsaicin-induced vasodilation in orally dosed rhesus monkey; format: functional, organism-based; conditions: Macaca mulatta
[21] = Oral bioavailability in rat at 5 mg/kg in presence of lmwitor:tween; format: ADME, organism-based; conditions: in vivo

T1 sequence (Q16602 whole entry, one chain of several): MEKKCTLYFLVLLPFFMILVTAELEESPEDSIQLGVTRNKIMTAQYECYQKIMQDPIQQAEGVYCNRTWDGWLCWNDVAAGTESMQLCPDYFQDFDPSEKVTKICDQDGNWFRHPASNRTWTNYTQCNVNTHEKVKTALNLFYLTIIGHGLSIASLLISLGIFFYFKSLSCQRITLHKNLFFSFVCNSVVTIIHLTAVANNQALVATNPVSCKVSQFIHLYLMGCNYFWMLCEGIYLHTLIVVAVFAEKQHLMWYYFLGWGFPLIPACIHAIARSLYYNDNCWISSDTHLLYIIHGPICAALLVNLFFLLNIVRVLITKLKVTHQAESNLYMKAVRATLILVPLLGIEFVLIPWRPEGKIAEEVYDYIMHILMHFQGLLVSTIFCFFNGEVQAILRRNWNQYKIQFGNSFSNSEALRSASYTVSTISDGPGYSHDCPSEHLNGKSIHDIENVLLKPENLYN

| Ki [1] [nM] | IC50 [2] [nM] | IC50 [3] [nM] | half-life [5] [min] | clearance [6] [mL/min/kg] | SMILES | also measured |
| --- | --- | --- | --- | --- | --- | --- |
| 3 | 33 | 1200 |  |  | CN1C(=O)Cn2c(=O)n(Cc3ccc4cc5c(cc4n3)C[C@@]3(C5)C(=O)NC(=O)N3C)c3cccc1c32 |  |
| 0.41 | 1.2 | 95 |  |  | CN1C(=O)Cn2c(=O)n(Cc3ccc4cc5c(cc4n3)C[C@@]3(C5)C(=O)Nc4ncccc43)c3cccc1c32 |  |
| 1.5 | 7.3 | 43 | 66 | 11 | CN1C(=O)NC(=O)[C@@]12Cc1cc3ccc(CN4CC5CC(=O)Nc6cccc4c65)nc3cc1C2 (some centres undefined) | bioavailability [4]: 41% |
| 1.3 | 7.2 | 44 | 66 | 44 | CCC12CC(=O)Nc3cccc(c31)N(Cc1ccc3cc4c(cc3n1)C[C@@]1(C4)C(=O)NC(=O)N1C)C2 (some centres undefined) | bioavailability [7]: 65% |
| 0.12 | 0.52 | 1.3 | 37.2 | 28 | CC12CC(=O)Nc3cccc(c31)N(Cc1ccc3cc4c(cc3n1)C[C@@]1(C4)C(=O)Nc3ncccc31)C2 (some centres undefined) | bioavailability [4]: 6% |
| 17 |  |  |  |  | CN1C(=O)NC(=O)[C@]12Cc1cc3ccc(Cn4c(=O)n(-c5ccccn5)c5ccccc54)nc3cc1C2 |  |
| 8.9 | 50 | 850 | 42 | 38 | CN1C(=O)NC(=O)[C@@]12Cc1cc3ccc(CN4C(=O)CCc5ccccc54)nc3cc1C2 | bioavailability [7]: 10% |
| 0.023 | 0.077 | 2.5 |  |  | O=C1Cn2c(=O)n(Cc3ccc4cc5c(cc4n3)C[C@@]3(C5)C(=O)Nc4ncccc43)c3cccc(c32)N1 | bioavailability [8]: 0%; half-life [9]: 27 min; clearance [10]: 40 mL/min/kg |
| 1.4 | 4.7 | 81 | 21 | 56 | O=C1CCc2ccccc2N1Cc1ccc2cc3c(cc2n1)C[C@@]1(C3)C(=O)Nc2ncccc21 | bioavailability [7]: 3% |
| 0.3 | 1.7 | 14 |  |  | CN1C(=O)NC(=O)[C@@]12Cc1cc3ccc(Cn4c(=O)n5c6c(cccc64)NC(=O)C5)nc3cc1C2 |  |
| 0.52 | 2.2 | 6.5 | 96 | 14 | CN1C(=O)NC(=O)[C@@]12Cc1cc3ccc(CN4CC5(C)CC(=O)Nc6cccc4c65)nc3cc1C2 (some centres undefined) | clearance [11]: 5.6 mL/min/kg; bioavailability [7]: 45%; bioavailability [4]: 34%; bioavailability [12]: 59%; bioavailability [13]: 38%; half-life [14]: 96 min; half-life [15]: 366 min; half-life [16]: 102 min; clearance [17]: 14 mL/min/kg; clearance [18]: 1.6 mL/min/kg; inhibition (Rhesus monkey [19]): Active; EC90 (Rhesus monkey [20]): 5500 nM |
| 55 |  |  |  |  | CN1C(=O)NC(=O)[C@]12Cc1ccc(NC(=O)Cn3c(=O)n(-c4ccccn4)c4ccccc43)c(F)c1C2 |  |
| 185 |  |  |  |  | CN1C(=O)NC(=O)C12Cc1cc3ncc(Cn4c(=O)n(-c5ccccn5)c5ccccc54)nc3cc1C2 (centres undefined) |  |
| 6000 |  |  |  |  | CN1C(=O)NC(=O)[C@@]12Cc1cc3nc(Cn4c(=O)n(-c5ccccn5)c5ccccc54)oc3cc1C2 |  |
| 0.55 | 0.86 | 4.1 |  |  | O=C1CC2CN(Cc3ccc4cc5c(cc4n3)C[C@@]3(C5)C(=O)Nc4ncccc43)c3cccc(c32)N1 (some centres undefined) | bioavailability [21]: 8%; half-life [9]: 19.2 min; clearance [10]: 19 mL/min/kg |
| 720 |  |  |  |  | CN1C(=O)NC(=O)[C@]12Cc1cc(F)c(NC(=O)Cn3c(=O)n(-c4ccccn4)c4ccccc43)cc1C2 |  |
| 0.072 | 0.68 | 1.5 | 36.6 | 11 | CCC12CC(=O)Nc3cccc(c31)N(Cc1ccc3cc4c(cc3n1)C[C@@]1(C4)C(=O)Nc3ncccc31)C2 (some centres undefined) | bioavailability [4]: 9% |
